The values below come from PubChem BioAssay AID330 (DTP/NCI, 2004).

The structures appear in SMILES notation. Values joined by “and” are separate entries in the source; they are usually repeats but may differ in a detail not shown here. Equal entries are not always repeated. Inconclusive results and toxic doses are left out.

The test concerns P388 leukemia ip, CD2F1 mice, survival T/C. Nature of the test: NCI In Vivo Anticancer Drug Screen. Data for tumor model P388 Leukemia (intraperitoneal) in CD2F1 (CDF1) mice. The conditions noted are these: endpoint: median survival time, higher = longer survival. The method, boiled down: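 Mice carrying the transplanted tumor received test compound or vehicle. Survival was recorded in each group, and the value is the treated-group measurement divided by that of the vehicle-treated control group.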

Where [1] appears, read: dose: 50.0 mg/kg/injection, schedule: Q01DX005 (ip), vehicle: Klucel (hydroxypropylcellulose) (HPC).
Setting [2] is: dose: 50.0 mg/kg/injection, schedule: Q01DX009 (ip), vehicle: saline with Tween-80.
Where [3] appears, read: dose: 100.0 mg/kg/injection, schedule: Q01DX009 (ip), vehicle: saline with Tween-80.
[4] abbreviates: dose: 60.0 mg/kg/injection, schedule: Q01DX005 (ip), vehicle: Klucel (hydroxypropylcellulose) (HPC).
Where [5] appears, read: dose: 12.5 mg/kg/injection, schedule: Q01DX009 (ip), vehicle: Klucel (hydroxypropylcellulose) (HPC).
Setting [6] is: dose: 25.0 mg/kg/injection, schedule: Q01DX009 (ip), vehicle: Klucel (hydroxypropylcellulose) (HPC).
Setting [7] is: dose: 50.0 mg/kg/injection, schedule: Q01DX009 (ip), vehicle: Klucel (hydroxypropylcellulose) (HPC).
Setting [8] is: dose: 100.0 mg/kg/injection, schedule: Q01DX009 (ip), vehicle: Klucel (hydroxypropylcellulose) (HPC).
Where [9] appears, read: dose: 50.0 mg/kg/injection, schedule: Q01DX005 (ip), vehicle: saline with Tween-80.
The mark [10] stands for this setting: dose: 100.0 mg/kg/injection, schedule: Q01DX005 (ip), vehicle: Klucel (hydroxypropylcellulose) (HPC).
Setting [11] is: dose: 200.0 mg/kg/injection, schedule: Q01DX005 (ip), vehicle: Klucel (hydroxypropylcellulose) (HPC).
[12] abbreviates: dose: 100.0 mg/kg/injection, schedule: Q01DX005 (ip), vehicle: saline with Tween-80.
Setting [13] is: dose: 200.0 mg/kg/injection, schedule: Q01DX005 (ip), vehicle: saline with Tween-80.
Setting [14] is: dose: 50.0 mg/kg/injection, schedule: Q01DX009 (ip), vehicle: saline.
Setting [15] is: dose: 60.0 mg/kg/injection, schedule: Q01DX005 (ip), vehicle: saline with Tween-80.
[16] abbreviates: dose: 120.0 mg/kg/injection, schedule: Q01DX005 (ip), vehicle: saline with Tween-80.
Setting [17] is: dose: 240.0 mg/kg/injection, schedule: Q01DX005 (ip), vehicle: saline with Tween-80.

As to `O=C1c2ccccc2C(=O)N1c1cccc(CBr)c1`, the T/C reads like this: (dose: 12.5 mg/kg/injection, schedule: Q01DX005 (ip), vehicle: Klucel (hydroxypropylcellulose) (HPC)) 102 % of control; (dose: 25.0 mg/kg/injection, schedule: Q01DX005 (ip), vehicle: Klucel (hydroxypropylcellulose) (HPC)) 114 % of control; under setting [1], 113 % of control.

Take `O=C1c2ccccc2C(=O)N1C/C=C\c1ccccc1`: the T/C by setting is: (dose: 100.0 mg/kg/injection, schedule: Q01DX001 (ip), vehicle: saline) 102 % of control; (dose: 200.0 mg/kg/injection, schedule: Q01DX001 (ip), vehicle: saline) 102 % of control; (dose: 400.0 mg/kg/injection, schedule: Q01DX001 (ip), vehicle: saline) 107 % of control.

In the case of `COc1cc(/C=C/C(=O)c2ccc(OCc3ccccc3)cc2OC(C)=O)c(OC)c(OC)c1OC`, the T/C reads like this: (dose: 100.0 mg/kg/injection, schedule: Q01DX001 (ip), vehicle: Klucel (hydroxypropylcellulose) (HPC)) 96 % of control; (dose: 200.0 mg/kg/injection, schedule: Q01DX001 (ip), vehicle: Klucel (hydroxypropylcellulose) (HPC)) 94 % of control.

With `O=C(N/N=C/c1ccccc1O)C(F)(F)F`, the T/C is 86 % of control under setting [2] and 86 % of control under setting [3].

In the case of `CCOC(=O)C(=C\c1nncn1-c1ccccc1)/C=C(/O)c1ccccc1`, the T/C was 97 % of control (dose: 15.0 mg/kg/injection, schedule: Q01DX005 (ip), vehicle: Klucel (hydroxypropylcellulose) (HPC)); 93 % of control (dose: 30.0 mg/kg/injection, schedule: Q01DX005 (ip), vehicle: Klucel (hydroxypropylcellulose) (HPC)); 87 % of control under setting [4].

Turning to `Nc1nc(-c2ccccc2N=NN2CCCCC2)nc2ccccc12`, the T/C under setting [5] was 111 % of control; the T/C under setting [6] was 102 % of control; the T/C under setting [7] was 104 % of control; the T/C under setting [8] was 110 % of control and 113 % of control.

Regarding `COC(=O)C1=C/C=C\CN(C=O)/C=C\1C(=O)OC`, the T/C is 101 % of control (dose: 100.0 mg/kg/injection, schedule: Q01DX001 (ip), vehicle: alcohol); 92 % of control (dose: 200.0 mg/kg/injection, schedule: Q01DX001 (ip), vehicle: alcohol); 101 % of control (dose: 400.0 mg/kg/injection, schedule: Q01DX001 (ip), vehicle: alcohol).

In the case of `O=c1[nH]nc2ccc(n[nH]c1=O)c1ccccc21`, the T/C by setting is: (dose: 3.13 mg/kg/injection, schedule: Q01DX005 (ip), vehicle: saline with Tween-80) 104 % of control; (dose: 6.25 mg/kg/injection, schedule: Q01DX005 (ip), vehicle: saline with Tween-80) 107 % of control; (dose: 12.5 mg/kg/injection, schedule: Q01DX005 (ip), vehicle: saline with Tween-80) 99 % of control and 103 % of control; (dose: 25.0 mg/kg/injection, schedule: Q01DX005 (ip), vehicle: saline with Tween-80) 101 % of control; under setting [9], 104 % of control and 107 % of control.

As to `O=C(O)c1cccc2c1C(=O)c1cccc3snc-2c13`, the T/C reads like this: under setting [1], 101 % of control; under setting [10], 99 % of control; under setting [11], 109 % of control.

With `O=C(c1ccccc1)c1ccccc1-c1nc2ccccc2c(=O)o1`, the T/C under setting [7] was 100 % of control; the T/C under setting [8] is 95 % of control; the T/C (dose: 200.0 mg/kg/injection, schedule: Q01DX009 (ip), vehicle: Klucel (hydroxypropylcellulose) (HPC)) was 109 % of control.

For the compound `C=CCOc1cc2c(cc1C(C)c1ccc(OC)c(C)c1)OCO2` (configuration not stated), the T/C is 100 % of control under setting [9], 95 % of control under setting [12] and 120 % of control under setting [13].

Consider `COC1=Nc2ccccc2N2CCN=C12`, for which the T/C runs as follows: (dose: 12.5 mg/kg/injection, schedule: Q01DX009 (ip), vehicle: saline) 86 % of control; (dose: 25.0 mg/kg/injection, schedule: Q01DX009 (ip), vehicle: saline) 100 % of control; under setting [14], 100 % of control.

Turning to `CC(/C=C/c1ccccc1)=N\NC(=O)c1ccc(O)cc1`, the T/C is 101 % of control under setting [1], 97 % of control under setting [10] and 93 % of control under setting [11].

Take `O=C1CCC2CC1CCC2=O`: the T/C under setting [5] is 111 % of control, the T/C under setting [6] is 102 % of control, the T/C under setting [7] was 109 % of control and the T/C under setting [8] was 111 % of control.

Consider `N#CC(C(=O)C(N)=O)c1ccc(Cl)cc1Cl` (configuration not stated), for which the T/C by setting is: under setting [15], 104 % of control; under setting [16], 103 % of control; under setting [17], 100 % of control.

For the compound `O=C(O)CCC(=O)CCC(=O)c1ccc(O)c2ncccc12`, the T/C was 92 % of control under setting [1], 105 % of control under setting [10] and 111 % of control under setting [11].

Consider `CCCCN(CCCC)C(C)C(O)c1ccc2cc(Br)c3ccccc3c2c1` (configuration not stated), for which the T/C reads like this: under setting [9], 100 % of control; under setting [12], 98 % of control; under setting [13], 91 % of control.

`O=C1C=C(C2=C(O)c3ccccc3C2=O)c2ccccc21` (tested in a mixture with another compound): the T/C under setting [7] was 105 % of control and the T/C under setting [8] was 105 % of control.

On to `CSC(/C=C1\C=CN(Cc2ccccc2)c2ccccc21)=N\S(=O)(=O)c1ccc(C)cc1`, for which the T/C reads like this: (dose: 25.0 mg/kg/injection, schedule: Q04DX002 (ip), vehicle: saline with Tween-80) 102 % of control; (dose: 50.0 mg/kg/injection, schedule: Q04DX002 (ip), vehicle: saline with Tween-80) 97 % of control; (dose: 100.0 mg/kg/injection, schedule: Q04DX002 (ip), vehicle: saline with Tween-80) 97 % of control.

`C=CCN(CC=C)Sc1cccc([N+](=O)[O-])c1`: the T/C is 109 % of control under setting [14] and 117 % of control (dose: 100.0 mg/kg/injection, schedule: Q01DX009 (ip), vehicle: saline).

In the case of `Cc1ccc(S(=O)(=O)N/N=C2\C(=N\NS(=O)(=O)c3ccc(C)cc3)C3c4ccccc4C2c2ccccc23)cc1`, the T/C by setting is: under setting [15], 105 % of control; under setting [16], 96 % of control; under setting [17], 95 % of control.

Take `O=C1Nc2ccc(Br)cc2/C1=N/n1c(-c2ccccc2)nc2ccccc2c1=O`: the T/C under setting [1] is 86 % of control, the T/C under setting [10] is 87 % of control and the T/C under setting [11] is 100 % of control.

`COc1ccc(C(Br)C(C)Br)cc1` (configuration not stated): the T/C reads like this: under setting [2], 104 % of control; under setting [3], 90 % of control; (dose: 200.0 mg/kg/injection, schedule: Q01DX009 (ip), vehicle: saline with Tween-80) 95 % of control.

In the case of `Cc1ccccc1SSc1ccccc1C`, the T/C under setting [2] is 113 % of control.

For `c1ccc(CNCc2ccccc2)cc1`, the T/C is, setting by setting: (dose: 50.0 mg/kg/injection, schedule: Q04DX003 (ip), vehicle: Klucel (hydroxypropylcellulose) (HPC)) 95 % of control; (dose: 100.0 mg/kg/injection, schedule: Q04DX003 (ip), vehicle: Klucel (hydroxypropylcellulose) (HPC)) 95 % of control; (dose: 200.0 mg/kg/injection, schedule: Q04DX003 (ip), vehicle: Klucel (hydroxypropylcellulose) (HPC)) 100 % of control.

With `CCCCNC(=S)NNC(=O)CNC(c1ccc(OC)cc1)C(CC)c1ccc(OC)cc1` (configuration not stated), the T/C reads like this: (dose: 100.0 mg/kg/injection, schedule: Q01DX001 (ip), vehicle: saline with Tween-80) 88 % of control; (dose: 200.0 mg/kg/injection, schedule: Q01DX001 (ip), vehicle: saline with Tween-80) 101 % of control.

Consider `Fc1ccc2nc3ccccc3c(SCCCCCSc3c4ccccc4nc4ccc(F)cc34)c2c1`, for which the T/C was 94 % of control under setting [4] and 90 % of control (dose: 120.0 mg/kg/injection, schedule: Q01DX005 (ip), vehicle: Klucel (hydroxypropylcellulose) (HPC)).

Consider `COc1ccc(-n2c(CSc3ccc(Cl)cc3)n[nH]c2=S)cc1`, for which the T/C by setting is: under setting [15], 104 % of control; under setting [16], 96 % of control; under setting [17], 95 % of control.

In the case of `Nc1cccnc1C1OCCO1`, the T/C by setting is: (dose: 50.0 mg/kg/injection, schedule: Q01DX009 (ip), vehicle: other) 100 % of control; (dose: 100.0 mg/kg/injection, schedule: Q01DX009 (ip), vehicle: other) 103 % of control.
